Data taken from ChEMBL document CHEMBL1201862, “PubChem BioAssay data set” (2004).
Active and inactive are the calls of the source.

Assays:
Large T antigen = Large T antigen (Simian virus 40, UniProt P03070); format: functional, Betapolyomavirus macacae;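 also: Confirmatory-stage PubChem screen for compounds that inhibit SV40 T antigen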
[1] = biological target: Peroxisome proliferator-activated receptor gamma/Nuclear receptor corepressor 2 (Homo sapiens, UniProt P37231+Q9Y618); format: functional
[2] = HEK-293T viability loss after treatment – luminescence, T-cell screen hits, cytotoxicity control for TCR NF-kB inhibitor project, dose response (AID 489026); format: functional, cell-based;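 also: cells exposed to compound about 14 hours before the viability readout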
[3] = luciferase reporter signal suppression in cells – H4 neuroglioma cells, luminescence, dose response (AID 1990); format: functional, cell-based
[4] = Luminescence Cell-Based Dose Response HTS to Identify Inhibitors of 5'UTR Stem-Loop Driven Prion Protein mRNA Translation in H4 Neuroglioblastoma Cells. [Related pubchem assays: 1827 (Project Summary), 1813 (Primary HTS)]; format: functional
[5] = biological target: Lysine-specific demethylase 4A (Homo sapiens, UniProt O75164); test: inhibition of JMJD2A H3K9me3 demethylation – biochemical, DELFIA europium, cherry-picked samples, selectivity assay for GASC-1 inhibitor project, dose response (AID 488840)
Chain of Lysine-specific demethylase 4A (O75164 whole entry): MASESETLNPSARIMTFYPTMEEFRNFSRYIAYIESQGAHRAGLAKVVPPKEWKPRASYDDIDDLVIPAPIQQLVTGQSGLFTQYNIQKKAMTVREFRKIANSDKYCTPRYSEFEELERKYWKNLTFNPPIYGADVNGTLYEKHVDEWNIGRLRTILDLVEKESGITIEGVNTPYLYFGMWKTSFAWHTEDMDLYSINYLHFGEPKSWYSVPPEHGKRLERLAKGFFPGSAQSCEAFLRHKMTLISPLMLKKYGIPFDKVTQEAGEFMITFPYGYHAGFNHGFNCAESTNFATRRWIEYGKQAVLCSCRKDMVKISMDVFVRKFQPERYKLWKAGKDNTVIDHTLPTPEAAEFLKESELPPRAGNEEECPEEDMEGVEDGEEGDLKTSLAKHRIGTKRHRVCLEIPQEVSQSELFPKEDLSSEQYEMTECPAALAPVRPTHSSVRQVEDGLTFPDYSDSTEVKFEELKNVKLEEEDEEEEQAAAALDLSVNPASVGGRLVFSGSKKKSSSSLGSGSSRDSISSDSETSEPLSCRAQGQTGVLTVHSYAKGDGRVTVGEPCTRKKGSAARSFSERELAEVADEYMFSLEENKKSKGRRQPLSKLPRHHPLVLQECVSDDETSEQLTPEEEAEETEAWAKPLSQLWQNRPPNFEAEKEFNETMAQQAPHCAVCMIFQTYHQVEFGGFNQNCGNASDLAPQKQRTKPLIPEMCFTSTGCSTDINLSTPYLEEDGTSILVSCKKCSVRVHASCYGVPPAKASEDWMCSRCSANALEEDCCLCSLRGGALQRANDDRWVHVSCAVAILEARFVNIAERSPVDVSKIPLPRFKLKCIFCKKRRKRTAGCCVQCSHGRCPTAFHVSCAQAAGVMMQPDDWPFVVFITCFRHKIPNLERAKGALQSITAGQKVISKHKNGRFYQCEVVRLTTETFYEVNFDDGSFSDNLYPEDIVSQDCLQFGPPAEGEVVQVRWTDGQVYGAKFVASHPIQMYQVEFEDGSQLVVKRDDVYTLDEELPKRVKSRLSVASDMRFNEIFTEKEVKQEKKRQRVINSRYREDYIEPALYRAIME

[6] = biological target: Transitional endoplasmic reticulum ATPase (Homo sapiens, UniProt P55072); test: p97 ATPase inhibitors, dose response, biochemical (AID 1534)
Chain of Transitional endoplasmic reticulum ATPase (P55072 whole entry): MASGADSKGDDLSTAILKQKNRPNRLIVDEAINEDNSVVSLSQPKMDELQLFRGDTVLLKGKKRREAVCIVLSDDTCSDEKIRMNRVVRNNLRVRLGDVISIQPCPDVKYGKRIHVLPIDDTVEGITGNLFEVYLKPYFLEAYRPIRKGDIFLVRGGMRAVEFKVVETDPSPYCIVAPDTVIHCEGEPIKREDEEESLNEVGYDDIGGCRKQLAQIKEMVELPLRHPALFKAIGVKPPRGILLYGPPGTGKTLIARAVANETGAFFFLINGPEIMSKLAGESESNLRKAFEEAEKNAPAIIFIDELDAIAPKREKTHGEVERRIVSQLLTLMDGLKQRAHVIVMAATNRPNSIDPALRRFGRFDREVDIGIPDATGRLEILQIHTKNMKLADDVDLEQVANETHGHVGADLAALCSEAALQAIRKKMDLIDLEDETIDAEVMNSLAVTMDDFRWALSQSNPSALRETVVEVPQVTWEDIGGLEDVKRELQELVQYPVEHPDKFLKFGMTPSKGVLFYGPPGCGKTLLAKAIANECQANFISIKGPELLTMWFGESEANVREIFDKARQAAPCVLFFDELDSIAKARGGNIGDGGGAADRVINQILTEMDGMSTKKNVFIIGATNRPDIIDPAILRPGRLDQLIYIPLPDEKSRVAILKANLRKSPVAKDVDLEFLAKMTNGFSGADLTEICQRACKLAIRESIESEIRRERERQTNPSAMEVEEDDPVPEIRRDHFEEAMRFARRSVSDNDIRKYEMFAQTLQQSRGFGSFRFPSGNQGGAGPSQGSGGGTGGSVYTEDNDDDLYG

BJ = test: BJ-TERT-LT-ST fibroblast viability loss – cell-based, RAS-independent, luminescence, dose response (AID 1935); format: functional; details: Homo sapiens;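 also: BJ fibroblasts immortalized with TERT plus LT and ST oncogenes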
[7] = biological target: T1, Mannose-6-phosphate isomerase (Homo sapiens, UniProt P34949); test: MPI inhibition at elevated mannose 6-phosphate – biochemical, fluorescence intensity, high mannose 6-phosphate, primary screen (AID 1220)
T1 sequence (P34949 whole entry): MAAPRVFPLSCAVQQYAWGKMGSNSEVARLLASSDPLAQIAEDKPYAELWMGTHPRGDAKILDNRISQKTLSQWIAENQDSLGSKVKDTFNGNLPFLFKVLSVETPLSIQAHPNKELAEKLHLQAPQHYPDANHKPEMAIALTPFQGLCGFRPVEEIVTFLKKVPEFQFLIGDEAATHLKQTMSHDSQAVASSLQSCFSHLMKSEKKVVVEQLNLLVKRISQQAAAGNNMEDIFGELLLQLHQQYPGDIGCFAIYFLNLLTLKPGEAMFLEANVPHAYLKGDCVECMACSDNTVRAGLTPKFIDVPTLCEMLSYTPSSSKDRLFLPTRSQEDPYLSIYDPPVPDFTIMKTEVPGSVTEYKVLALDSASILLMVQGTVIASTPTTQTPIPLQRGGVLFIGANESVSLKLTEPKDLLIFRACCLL

[8] = biological target: T2, Tyrosine-protein phosphatase non-receptor type 22 (Homo sapiens, UniProt Q9Y2R2); format: functional;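 also: confirmatory dose-response retesting of primary uHTS hits against LYP; potency is for inhibition of phosphatase activity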
T2 sequence (Q9Y2R2 whole entry): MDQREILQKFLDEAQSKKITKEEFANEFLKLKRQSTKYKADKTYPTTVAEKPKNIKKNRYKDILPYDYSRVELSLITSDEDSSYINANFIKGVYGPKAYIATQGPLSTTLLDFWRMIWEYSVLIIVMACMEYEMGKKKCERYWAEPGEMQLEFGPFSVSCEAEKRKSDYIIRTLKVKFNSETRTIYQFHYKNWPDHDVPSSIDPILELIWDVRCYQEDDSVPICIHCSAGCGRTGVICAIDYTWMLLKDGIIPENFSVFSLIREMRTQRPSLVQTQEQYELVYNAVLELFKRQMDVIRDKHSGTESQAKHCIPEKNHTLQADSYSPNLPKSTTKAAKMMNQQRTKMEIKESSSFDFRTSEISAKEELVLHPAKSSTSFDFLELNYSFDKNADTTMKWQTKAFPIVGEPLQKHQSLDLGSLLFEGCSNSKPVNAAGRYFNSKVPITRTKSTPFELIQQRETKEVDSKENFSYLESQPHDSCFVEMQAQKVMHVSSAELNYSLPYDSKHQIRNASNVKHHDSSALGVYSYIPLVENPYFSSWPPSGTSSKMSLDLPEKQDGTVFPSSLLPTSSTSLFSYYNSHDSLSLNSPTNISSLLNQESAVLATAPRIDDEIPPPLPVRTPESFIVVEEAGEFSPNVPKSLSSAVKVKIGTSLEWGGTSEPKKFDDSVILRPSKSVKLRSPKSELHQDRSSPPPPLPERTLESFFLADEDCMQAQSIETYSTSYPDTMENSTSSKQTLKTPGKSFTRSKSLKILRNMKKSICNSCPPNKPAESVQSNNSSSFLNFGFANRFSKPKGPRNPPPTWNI

MEF = test: SAR analysis of small molecule cytotoxicity of MazEF TA System activators in embryonic fibroblast (MEF) cells. [Related pubchem assays (depositor defined):AID504720, AID504743]; format: functional; details: Mus musculus
[9] = biological target: T3, Endoribonuclease toxin MazF (Escherichia coli K-12, UniProt P0AE70); test: activation of MazEF endoribonuclease cleavage – biochemical, fluorescence, single-stranded RNA substrate, uHTS hits, dose response (AID 588481); format: functional
T3 sequence (P0AE70 whole entry): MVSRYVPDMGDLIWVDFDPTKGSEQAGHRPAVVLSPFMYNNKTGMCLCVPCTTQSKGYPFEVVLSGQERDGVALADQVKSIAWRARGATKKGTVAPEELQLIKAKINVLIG

[10] = biological target: T3, Endoribonuclease toxin MazF; test: substrate-only fluorescence increase artefacts – biochemical, single-stranded RNase substrate, counter-screen for MazEF activator project, dose response (AID 588502); format: functional
Vero = test: viability of Vero cells under compound – cytotoxicity control for flavivirus capping enzyme inhibitors (AID 588742); format: functional; details: Chlorocebus sabaeus
[11] = biological target: Glutathione-S-transferase (Schistosoma japonicum, UniProt Q26513); test: GST-antibody interaction or FRET quenching – biochemical, TR-FRET, artefact control for Vif-APOBEC3G degradation inhibitor project, dose response (AID 1117362); format: functional
Chain of Glutathione-S-transferase (Q26513 whole entry): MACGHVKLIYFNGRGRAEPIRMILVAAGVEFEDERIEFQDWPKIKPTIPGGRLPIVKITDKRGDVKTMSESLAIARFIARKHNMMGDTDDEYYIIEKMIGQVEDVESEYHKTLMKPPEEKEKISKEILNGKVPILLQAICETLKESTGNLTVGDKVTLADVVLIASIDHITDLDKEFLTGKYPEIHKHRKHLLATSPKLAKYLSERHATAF

[12] = biological target: Delta-type opioid receptor (Homo sapiens, UniProt P41143); test: Counterscreen for agonists of heterodimerization of the mu 1 (OPRM1) and delta 1 (OPRD1) opioid receptors: Luminescence-based cell-based high throughput dose response assay to identify agonists of OPRD1 homodimerization. [Related pubchem assays (depositor defined):AID504326, AID504355, AID504692, AID504904, AID504905]; format: functional
Chain of Delta-type opioid receptor (P41143 whole entry): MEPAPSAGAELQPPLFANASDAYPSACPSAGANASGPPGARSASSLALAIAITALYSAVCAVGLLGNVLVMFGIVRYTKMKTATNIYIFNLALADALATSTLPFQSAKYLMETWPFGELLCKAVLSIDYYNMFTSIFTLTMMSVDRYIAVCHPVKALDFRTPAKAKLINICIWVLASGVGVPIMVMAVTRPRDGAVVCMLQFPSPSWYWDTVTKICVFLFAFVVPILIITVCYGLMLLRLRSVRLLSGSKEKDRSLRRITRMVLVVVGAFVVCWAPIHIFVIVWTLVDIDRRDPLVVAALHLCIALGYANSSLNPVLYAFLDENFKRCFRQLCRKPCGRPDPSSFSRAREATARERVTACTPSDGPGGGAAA

Caspase-3 = biological target: T4, Caspase-3 (Homo sapiens, UniProt P42574); format: functional;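 also: Dose-response selectivity test against caspase-3 for candidate inhibitors of sentrin-specific proteases (SENPs)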
T4 sequence (P42574 whole entry): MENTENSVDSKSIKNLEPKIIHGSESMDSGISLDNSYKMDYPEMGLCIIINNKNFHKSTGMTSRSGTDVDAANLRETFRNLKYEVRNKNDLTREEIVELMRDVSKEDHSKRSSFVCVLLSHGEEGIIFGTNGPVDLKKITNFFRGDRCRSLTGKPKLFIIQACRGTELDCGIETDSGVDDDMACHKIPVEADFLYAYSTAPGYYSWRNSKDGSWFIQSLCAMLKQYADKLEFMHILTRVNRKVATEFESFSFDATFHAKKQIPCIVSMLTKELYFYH

Caspase-8 = Caspase-8 (Homo sapiens, UniProt Q14790); test: inhibitors of purified CASP8 protease – biochemical, Z-IETD-R110 fluorescence, cherry-picked samples, selectivity assay for caspase-6 inhibitor project, dose response (AID 743294)
Chain of Caspase-8 (Q14790 217-374 limits assumed): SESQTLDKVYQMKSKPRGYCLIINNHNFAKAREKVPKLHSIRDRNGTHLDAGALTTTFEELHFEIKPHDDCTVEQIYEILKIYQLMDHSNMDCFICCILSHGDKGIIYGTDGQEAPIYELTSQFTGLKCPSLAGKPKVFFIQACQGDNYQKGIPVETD
Chain of Caspase-8 (Q14790 385-479 limits assumed): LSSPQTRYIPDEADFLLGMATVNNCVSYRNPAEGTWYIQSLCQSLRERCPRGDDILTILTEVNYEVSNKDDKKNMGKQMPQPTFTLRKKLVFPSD

Chain of Large T antigen (P03070 whole entry): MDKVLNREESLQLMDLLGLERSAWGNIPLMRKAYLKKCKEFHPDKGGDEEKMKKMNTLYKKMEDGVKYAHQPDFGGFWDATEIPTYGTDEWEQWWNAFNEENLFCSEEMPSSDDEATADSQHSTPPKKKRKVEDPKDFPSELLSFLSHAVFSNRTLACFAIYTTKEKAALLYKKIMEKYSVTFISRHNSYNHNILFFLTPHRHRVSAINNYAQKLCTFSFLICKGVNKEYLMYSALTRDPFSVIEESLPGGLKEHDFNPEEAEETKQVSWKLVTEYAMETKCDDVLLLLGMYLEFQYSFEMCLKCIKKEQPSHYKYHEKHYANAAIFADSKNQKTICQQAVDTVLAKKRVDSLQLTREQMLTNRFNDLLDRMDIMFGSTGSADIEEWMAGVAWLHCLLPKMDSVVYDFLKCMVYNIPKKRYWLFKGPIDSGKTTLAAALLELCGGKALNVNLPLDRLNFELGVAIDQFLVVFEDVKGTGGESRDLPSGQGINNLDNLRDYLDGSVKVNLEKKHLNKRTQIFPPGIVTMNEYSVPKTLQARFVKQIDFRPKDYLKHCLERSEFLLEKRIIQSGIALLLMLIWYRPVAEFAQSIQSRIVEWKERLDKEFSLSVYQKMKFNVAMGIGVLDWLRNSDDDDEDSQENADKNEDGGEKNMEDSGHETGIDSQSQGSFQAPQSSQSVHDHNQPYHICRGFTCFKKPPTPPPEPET

O=C(CCN1C(=O)/C(=C\c2ccco2)SC1=S)Nc1ccc(C(=O)O)c(O)c1
IC50 (Large T antigen): > 100 µM (active)

Cc1nc2c(=O)n(C)c(=O)nc-2n(C)n1
IC50 [1]: > 39.8 µM (not active) | IC50 [2]: 9.41 µM (active) | EC50 [3]: 235 nM (active) | EC50 [4]: 251 nM (inconclusive) | AC50 [5]: 1.78 µM (active) | IC50 [6]: > 50 µM (not active) | EC50 (BJ): 4.95 µM (inconclusive) | IC50 [7]: 6.09 µM (active) | IC50 [8]: < 1.24 µM (active)

O=C1C=C(c2c(O)ccc3ccccc23)c2ccccc2C1=O
CC50 (MEF): 3.84 µM (active) | EC50 [9]: 7.31 µM (active) | EC50 [10]: > 99 µM (inactive) | CC50 (Vero): 22.1 µM (active) | IC50 [11]: > 100 µM (active) | EC50 [12]: > 92.4 µM (inactive)

Oc1nc(Nc2ccccc2Cl)cc2ccccc12
IC50 (Caspase-3): 4.42 µM (active) | AC50 (Caspase-8): 13.4 µM (active)
